Data taken from patent publication US20240246977A1, “DEGRADATION OF BRUTON'S TYROSINE KINASE (BTK) BY CONJUGATION OF BTK INHIBITORS WITH E3 LIGASE LIGAND AND METHOD OF USE” (BeiGene Switzerland GmbH, priority 2021, published 2024).

Key:
HEK-293 cells = test: HEK-293 cytotoxicity detection (CellTiter-Glo); type: cell-based; conditions: Homo sapiens, 72 h, 72 h incubation, CellTiter-Glo luminescence, read-out: HEK293
Experimental: HEK-293 cells were treated with compounds diluted in 0.2% DMSO, dilution was done according to the following protocol: (1) making 500× stock solution in DMSO from 5 mM by 4-fold dilution, total 8 doses were included; (2) making 2× solution in cell culture medium by transferring 0.5 ul 500× stock solution into 125 ul medium; (3) adding 50 ul of 2× solution to cells for incubation of 72 h.
25 μl of the CellTiter-Glo®Reagent [(Promega)—Cat No. G7572] was added to each well in the 96-well plate. The contents were mixed for 2 minutes on an orbital shaker to induce cell lysis. The plate was then allowed to incubate at room temperature for 10 minutes to stabilize luminescent signal. Luminescence was recorded on BMG PheraStar with luminescence protocol.
The inhibition percentage of the compound was calculated by the following equation: Inhibition percentage of Compound=100−100×(Signal-low control)/(High control-low control), wherein signal=each test compound group
High control=Cell group with added DMSO and without compound, indicating cells proliferation with no inhibition;
Imax is the maximum percentage of inhibition.
The IC50 value of a compound can be obtained by fitting the following equation
(§1) Wherein, X and Y are known values, and IC50, Hillslope, Top and Bottom are the parameters obtained by fitting with software. Y is the inhibition percentage (calculated from the equation), X is the concentration of the compound; IC50 is the concentration of the compound when the 50% inhibition is reached. The smaller the IC50 value is, the stronger the inhibitory ability of the compound is. Vice versa, the higher the IC50 value is, the weaker the ability the inhibitory ability of the compound is; Hillslope represents the slope of the fitted curve, generally around 1*; Bottom represents the minimum value of the curve obtained by data fitting, which is generally 0%±20%; Top represents the maximum value of the curve obtained by data fitting, which is generally 100%±20%. The experimental data were fitted by calculating and analyzing with Dotmatics data analysis software.

BTK = BTK (Homo sapiens, UniProt Q06187); test: BTK cell degradation in TMD-8 cells, HTRF assay; type: cell-based; design: endogenous in cells; host or cells: TMD-8 cells; conditions: 6 h treatment, IC50 (DC50) of BTK degradation
Experimental: TMD-8 cells were treated with compounds diluted in 0.2% DMSO, dilution was done according to the following protocol: (1) making 500× stock solution in DMSO from 1 mM by 6-fold dilution, total 8 doses were included; (2) making 2× solution in cell culture medium by transferring 0.5 μl 500× stock solution into 125 μl medium; (3) adding 15 μl of 2× solution to cells for incubation of 6 h.
After 6 h treatment, 10 μl 14×lysis buffer was added to each well; the plate was sealed and incubated for 30 min at room temperature on a plate shaker; Once the cells was lysed, 16 μL of cell lysate were transferred to a PE 384-well HTRF detection plate; 4 μL of pre-mixed HTRF antibodies were added to each well; the plate was covered with a plate sealer, and then spinned at 1000 rpm for 1 min, then incubated overnight at room temperature; the results were read on BMG PheraStar with HTRF protocol (337 nm-665 nm-620 nm).
The inhibition (degradation) percentage of the compound was calculated by the following equation: Inhibition percentage of Compound=100−100×(Signal-low control)/(High control-low control), wherein signal=each test compound group
High control=Cell group with added DMSO and without compound, indicating microplate readings without BTK degradation;
Dmax is the maximum percentage of inhibition (degradation).
The IC50 (DC50) value of a compound can be obtained by fitting the following equation
Y=Bottom+(TOP−Bottom)/(1+((IC50/X)^hillslope))
as §1, with “wherein,” for “Wherein,”

BTK, sequence (Q06187 whole entry): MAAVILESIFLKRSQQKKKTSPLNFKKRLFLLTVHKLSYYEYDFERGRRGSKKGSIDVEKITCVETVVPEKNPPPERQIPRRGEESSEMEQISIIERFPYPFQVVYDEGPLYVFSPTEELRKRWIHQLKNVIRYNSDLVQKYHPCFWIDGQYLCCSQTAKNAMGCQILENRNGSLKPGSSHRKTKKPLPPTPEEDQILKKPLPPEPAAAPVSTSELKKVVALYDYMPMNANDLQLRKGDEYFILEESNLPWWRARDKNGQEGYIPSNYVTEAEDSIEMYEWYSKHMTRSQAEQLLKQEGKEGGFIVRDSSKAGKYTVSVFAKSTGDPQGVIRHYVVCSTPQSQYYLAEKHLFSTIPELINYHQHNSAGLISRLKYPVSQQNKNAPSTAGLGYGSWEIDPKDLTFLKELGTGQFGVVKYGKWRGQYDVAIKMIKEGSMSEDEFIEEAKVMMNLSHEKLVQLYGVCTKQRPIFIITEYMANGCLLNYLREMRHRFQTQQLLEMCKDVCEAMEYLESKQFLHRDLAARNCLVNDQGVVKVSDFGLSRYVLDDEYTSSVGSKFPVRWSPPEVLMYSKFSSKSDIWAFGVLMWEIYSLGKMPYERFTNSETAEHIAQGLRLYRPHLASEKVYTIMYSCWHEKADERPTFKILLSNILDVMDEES

DC50 (BTK)	Compound	IC50 (HEK-293 cells)
9.23 nM	NC(=O)c1c(-c2ccc(Oc3ccccc3)cc2)nn2c1Nc1cc(C3CCN(CCC4CCN(c5ccc(N6CCC(=O)NC6=O)cc5)CC4)CC3)ccc1CC2 [Example A23, 6-(1-(2-(1-(4-(2,4-dioxotetrahydropyrimidin-1(2H)-yl)phenyl)piperidin-4-yl)ethyl)piperidin-4-yl)-2-(4-phenoxyphenyl)-9,10-dihydro-4H-benzo[d]pyrazolo[1,5-a] [1,3]diazepine-3-carboxamide]	445 nM
9.26 nM	NC(=O)c1c(-c2ccc(Oc3ccccc3)cc2)nn2c1Nc1ccc(OCCC3CCN(c4ccc(N5CCC(=O)NC5=O)cc4)CC3)cc1CC2 [Example A24, 7-(2-(1-(4-(2,4-dioxotetrahydropyrimidin-1(2H)-yl)phenyl)piperidin-4-yl)ethoxy)-2-(4-phenoxyphenyl)-9,10-dihydro-4H-benzo[d]pyrazolo[1,5-a][1,3]diazepine-3-carboxamide]	235 nM
24.9 nM	NC(=O)c1c(-c2ccc(Oc3ccccc3)cc2)nn2c1Nc1cc(OCCC3CCN(c4ccc(N5CCC(=O)NC5=O)cc4)CC3)ccc1CC2 [Example A25, 6-(2-(1-(4-(2,4-dioxotetrahydropyrimidin-1(2H)-yl)phenyl)piperidin-4-yl)ethoxy)-2-(4-phenoxyphenyl)-9,10-dihydro-4H-benzo[d]pyrazolo[1,5-a][1,3]diazepine-3-carboxamide]	> 10000 nM
16 nM	NC(=O)c1c(-c2ccc(Oc3ccccc3)cc2)nn2c1Nc1ccc(CCC3CCN(c4ccc(NC5CCC(=O)NC5=O)cc4)CC3)cc1CC2 (stereo not drawn) [Example A26, 7-(2-(1-(4-((2,6-dioxopiperidin-3-yl)amino)phenyl)piperidin-4-yl)ethyl)-2-(4-phenoxyphenyl)-9,10-dihydro-4H-benzo[d]pyrazolo[1,5-a][1,3] diazepine-3-carboxamide]	283 nM
6.73 nM	NC(=O)c1c(-c2ccc(Oc3ccccc3)cc2)nn2c1Nc1cc(C3CCN(CC4CCN(c5ccc(N6CCC(=O)NC6=O)cc5)CC4)CC3)ccc1CC2 [Example A27, 6-(1-((1-(4-(2,4-dioxotetrahydropyrimidin-1(2H)-yl)phenyl)piperidin-4-yl)methyl)piperidin-4-yl)-2-(4-phenoxyphenyl)-9,10-dihydro-4H-benzo[d]pyrazolo[1,5-a][1,3]diazepine-3-carboxamide]	317 nM
2.01 nM	NC(=O)c1c(-c2ccc(Oc3ccccc3)cc2)nn2c1Nc1ccc(C3CCN(CCC4CCN(c5ccc(N6CCC(=O)NC6=O)cc5)CC4)CC3)cc1CC2 [Example A28, 7-(1-(2-(1-(4-(2,4-dioxotetrahydropyrimidin-1(2H)-yl)phenyl)piperidin-4-yl)ethyl)piperidin-4-yl)-2-(4-phenoxyphenyl)-9,10-dihydro-4H-benzo[d]pyrazolo[1,5-a][1,3]diazepine-3-carboxamide]	81.1 nM
1.58 nM	NC(=O)c1c(-c2ccc(Oc3ccccc3)cc2)nn2c1Nc1ccc(C3CCN(CC4CCN(c5ccc(N6CCC(=O)NC6=O)cc5)CC4)CC3)cc1CC2 [Example A30, 7-(1-((1-(4-(2,4-dioxotetrahydropyrimidin-1(2H)-yl)phenyl)piperidin-4-yl)methyl)piperidin-4-yl)-2-(4-phenoxyphenyl)-9,10-dihydro-4H-benzo[d]pyrazolo[1,5-a][1,3]diazepine-3-carboxamide]	28.7 nM
11.9 nM	CC(C)(C)c1ccc(Oc2ccc(-c3nn4c(c3C(N)=O)Nc3ccc(C5CCN(CC6CCN(c7ccc(N8CCC(=O)NC8=O)cc7)CC6)CC5)cc3CC4)cc2)cc1 [Example A31, 2-(4-(4-(tert-butyl)phenoxy)phenyl)-7-(1-((1-(4-(2,4-dioxotetrahydropyrimidin-1(2H)-yl)phenyl)piperidin-4-yl)methyl)piperidin-4-yl)-9,10-dihydro-4H-benzo[d]pyrazolo[1,5-a][1,3]diazepine-3-carboxamide]	556 nM
6.03 nM	NC(=O)c1c(-c2ccc(Oc3ccccc3)cc2)nn2c1Nc1cc(C3CCN(CCCOc4ccc(NC5CCC(=O)NC5=O)cc4)CC3)ccc1CC2 (stereo not drawn) [Example A32, 6-(1-(3-(4-((2,6-dioxopiperidin-3-yl)amino)phenoxy)propyl)piperidin-4-yl)-2-(4-phenoxyphenyl)-9,10-dihydro-4H-benzo[d]pyrazolo[1,5-a] [1,3]diazepine-3-carboxamide]	417 nM
> 2000 nM	NC(=O)c1c(-c2ccc(Oc3ccccc3)cc2)nn2c1Nc1cc(C3CCN(CCc4ccc(N5CCC(=O)NC5=O)cc4)CC3)ccc1CC2 [Example A33, 6-(1-(4-(2,4-dioxotetrahydropyrimidin-1(2H)-yl)phenethyl)piperidin-4-yl)-2-(4-phenoxyphenyl)-9,10-dihydro-4H-benzo[d]pyrazolo[1,5-a][1,3]diazepine-3-carboxamide]	314 nM
11.9 nM	NC(=O)c1c(-c2ccc(Oc3ccccc3)cc2)nn2c1Nc1cc(C3CCN(CCc4ccc(C5CCC(=O)NC5=O)cc4)CC3)ccc1CC2 (stereo not drawn) [Example A34, 6-(1-(4-(2,6-dioxopiperidin-3-yl)phenethyl)piperidin-4-yl)-2-(4-phenoxyphenyl)-9,10-dihydro-4H-benzo[d]pyrazolo[1,5-a][1,3]diazepine-3-carboxamide]	337 nM
69.1 nM	NC(=O)c1c(-c2ccc(Oc3ccccc3)cc2)nn2c1Nc1cc(C3CCN(CC4CCN(c5ccc(NC6CCC(=O)NC6=O)cc5)CC4)CC3)ccc1CC2 (stereo not drawn) [Example A35, 6-(1-((1-(4-((2,6-dioxopiperidin-3-yl)amino)phenyl)piperidin-4-yl)methyl)piperidin-4-yl)-2-(4-phenoxyphenyl)-9,10-dihydro-4H-benzo[d]pyrazolo[1,5-a][1,3]diazepine-3-carboxamide]	241 nM
3.6 nM	COc1cc(Oc2ccccc2)ccc1-c1nn2c(c1C(N)=O)Nc1ccc(N3CCN(CC4CCN(c5ccc(N6CCC(=O)NC6=O)cc5)CC4)CC3)cc1CC2 [Example A36, 7-(4-((1-(4-(2,4-dioxotetrahydropyrimidin-1(2H)-yl)phenyl)piperidin-4-yl)methyl)piperazin-1-yl)-2-(2-methoxy-4-phenoxyphenyl)-9,10-dihydro-4H-benzo[d]pyrazolo[1,5-a][1,3]diazepine-3-carboxamide]	148 nM
4.71 nM	NC(=O)c1c(-c2ccc(Oc3ccccc3)cc2F)nn2c1Nc1ccc(N3CCN(CC4CCN(c5ccc(N6CCC(=O)NC6=O)cc5)CC4)CC3)cc1CC2 [Example A37, 7-(4-((1-(4-(2,4-dioxotetrahydropyrimidin-1(2H)-yl)phenyl)piperidin-4-yl)methyl)piperazin-1-yl)-2-(2-fluoro-4-phenoxyphenyl)-9,10-dihydro-4H-benzo[d]pyrazolo[1,5-a][1,3]diazepine-3-carboxamide]	70 nM
1.12 nM	NC(=O)c1c(-c2ccc(OCc3ccccc3)cc2)nn2c1Nc1ccc(N3CCN(CC4CCN(c5ccc(N6CCC(=O)NC6=O)cc5)CC4)CC3)cc1CC2 [Example A38, 2-(4-(benzyloxy)phenyl)-7-(4-((1-(4-(2,4-dioxotetrahydropyrimidin-1(2H)-yl)phenyl)piperidin-4-yl)methyl)piperazin-1-yl)-9,10-dihydro-4H-benzo[d]pyrazolo[1,5-a][1,3]diazepine-3-carboxamide]	185 nM
